Laboratory results as given in publication PMC10344917, “Affinity and cooperativity modulate ternary complex formation to drive targeted protein degradation” (Nature Communications, 2023).
Read-outs that look alike come from different tables or passages of the source. Each block holds one molecule with its values, some of them ahead of it.

Key:
[1] = biological target: T1, VBC / SMARCA2^BD ternary complex (Homo sapiens, UniProt P40337+P51531); assay: SPR ternary complex binding, VBC surface with preformed PROTAC/SMARCA2 bromodomain complex
T1 construct: VHL (54-213), ElonginB (17-112) ElonginC (1-104); SMARCA2^BD 1373–1511 ∆1400–1417; His6 (N, cleaved yes); made in house
Description: (§1) SPR experiments were performed on a Biacore 8 K or T200 instrument (Cytiva). […] The running buffer during immobilization was PBS with 0.005% P20. Either high-density (3000-4000 RU) or low-density (300-400 RU) VBC-functionalized surfaces were created, followed by equilibration in the running buffer for 3 h.
(§2) PROTACs (10 mM in 100% DMSO) were initially prepared at 200 nM in a running buffer (20 mM Tris pH 8.0, 250 mM NaCl, 1 mM TCEP, 0.01% P20, 0.2 mg/ml BSA) with a concentration of 2% DMSO. This solution was mixed at 1:1 ratio with a solution of 5 μM of the SMARCA2 or BRD4 bromodomain protein in the running buffer. This complex was then serially diluted in the running buffer containing 2.5 μM SMARCA2 or BRD4 and 2% DMSO (5-point five-fold serial dilution). For ternary experiments, solutions were injected sequentially in single-cycle kinetic format without regeneration (contact time 60 s, flow rate 80 μL/min, dissociation time 300 s) using a stabilization period of 60 s and syringe wash (50% DMSO) between injections onto a low-density VBC-functionalized surface.
(§3) Raw sensorgrams were processed by performing double reference subtraction, solvent correction, and analysis was done using Biacore Insight Evaluation Software. Kinetic analysis was performed by fitting data to a 1:1 Langmuir interaction model and a steady-state affinity model was used to evaluate equilibrium binding affinity.

[2] = biological target: T2, SMARCA2^BD (Homo sapiens, UniProt P51531); assay: SPR binary binding of PROTAC to SMARCA2-functionalized surface; conditions: 1:1 Langmuir binding model, SEM N=3 or SD N=2, read-out: KTP (binary affinity PROTAC / SMARCA2)
T2 construct: SMARCA2^BD 1373–1511 ∆1400–1417; made in house
T2 sequence (P51531 1373-1493 isoform P51531-2): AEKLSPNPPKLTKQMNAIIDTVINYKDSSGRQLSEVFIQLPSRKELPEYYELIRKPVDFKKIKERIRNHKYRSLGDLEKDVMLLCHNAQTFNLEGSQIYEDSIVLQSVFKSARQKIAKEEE
Description: PROTACs (10 mM stocks in 100% DMSO) were diluted to 400 nM in a running buffer (20 mM Tris pH 7.5, 200 mM NaCl, 0.02% P20). This stock solution was then serially diluted in the running buffer containing final 2% DMSO. Solutions were injected in multi-cycle kinetic format without regeneration (contact time 60 s, flow rate 80 μL/min, dissociation time 120 s) using a stabilization period of 30 s and syringe wash (50% DMSO) between injections onto a high-density VBC-functionalized surface. For SMARCA2 analysis, biotinylated proteins were introduced on a Series S streptavidin (SA) sensor chip at high-density (3000-4000 RU).
as §3

[3] = biological target: T3, VHL/EloB/EloC (VBC) (Homo sapiens, UniProt P40337); assay: SPR binary binding of PROTAC to VBC-functionalized surface; conditions: SPR; error SEM, N = 3; read-out: KLP (binary binding affinity between E3 ligase VHL and PROTAC)
T3 construct: VHL (54-213), ElonginB (17-112) ElonginC (1-104); made in house
Description: as §1
PROTACs (10 mM stocks in 100% DMSO) were diluted to 400 nM in a running buffer (20 mM Tris pH 7.5, 200 mM NaCl, 0.02% P20). This stock solution was then serially diluted in the running buffer containing final 2% DMSO. […] For SMARCA2 analysis, biotinylated proteins were introduced on a Series S streptavidin (SA) sensor chip at high-density (3000-4000 RU).
as §3

[4] = biological target: T4, SMARCA2 (Homo sapiens, UniProt P51531); assay: SMARCA2 degradation time course in A375 cells (MSD); assay type: cell-based; conditions: single concentration at or near maximal activity
T4 construct: endogenous in cells; host or cells: A375
T4 sequence (P51531 whole entry): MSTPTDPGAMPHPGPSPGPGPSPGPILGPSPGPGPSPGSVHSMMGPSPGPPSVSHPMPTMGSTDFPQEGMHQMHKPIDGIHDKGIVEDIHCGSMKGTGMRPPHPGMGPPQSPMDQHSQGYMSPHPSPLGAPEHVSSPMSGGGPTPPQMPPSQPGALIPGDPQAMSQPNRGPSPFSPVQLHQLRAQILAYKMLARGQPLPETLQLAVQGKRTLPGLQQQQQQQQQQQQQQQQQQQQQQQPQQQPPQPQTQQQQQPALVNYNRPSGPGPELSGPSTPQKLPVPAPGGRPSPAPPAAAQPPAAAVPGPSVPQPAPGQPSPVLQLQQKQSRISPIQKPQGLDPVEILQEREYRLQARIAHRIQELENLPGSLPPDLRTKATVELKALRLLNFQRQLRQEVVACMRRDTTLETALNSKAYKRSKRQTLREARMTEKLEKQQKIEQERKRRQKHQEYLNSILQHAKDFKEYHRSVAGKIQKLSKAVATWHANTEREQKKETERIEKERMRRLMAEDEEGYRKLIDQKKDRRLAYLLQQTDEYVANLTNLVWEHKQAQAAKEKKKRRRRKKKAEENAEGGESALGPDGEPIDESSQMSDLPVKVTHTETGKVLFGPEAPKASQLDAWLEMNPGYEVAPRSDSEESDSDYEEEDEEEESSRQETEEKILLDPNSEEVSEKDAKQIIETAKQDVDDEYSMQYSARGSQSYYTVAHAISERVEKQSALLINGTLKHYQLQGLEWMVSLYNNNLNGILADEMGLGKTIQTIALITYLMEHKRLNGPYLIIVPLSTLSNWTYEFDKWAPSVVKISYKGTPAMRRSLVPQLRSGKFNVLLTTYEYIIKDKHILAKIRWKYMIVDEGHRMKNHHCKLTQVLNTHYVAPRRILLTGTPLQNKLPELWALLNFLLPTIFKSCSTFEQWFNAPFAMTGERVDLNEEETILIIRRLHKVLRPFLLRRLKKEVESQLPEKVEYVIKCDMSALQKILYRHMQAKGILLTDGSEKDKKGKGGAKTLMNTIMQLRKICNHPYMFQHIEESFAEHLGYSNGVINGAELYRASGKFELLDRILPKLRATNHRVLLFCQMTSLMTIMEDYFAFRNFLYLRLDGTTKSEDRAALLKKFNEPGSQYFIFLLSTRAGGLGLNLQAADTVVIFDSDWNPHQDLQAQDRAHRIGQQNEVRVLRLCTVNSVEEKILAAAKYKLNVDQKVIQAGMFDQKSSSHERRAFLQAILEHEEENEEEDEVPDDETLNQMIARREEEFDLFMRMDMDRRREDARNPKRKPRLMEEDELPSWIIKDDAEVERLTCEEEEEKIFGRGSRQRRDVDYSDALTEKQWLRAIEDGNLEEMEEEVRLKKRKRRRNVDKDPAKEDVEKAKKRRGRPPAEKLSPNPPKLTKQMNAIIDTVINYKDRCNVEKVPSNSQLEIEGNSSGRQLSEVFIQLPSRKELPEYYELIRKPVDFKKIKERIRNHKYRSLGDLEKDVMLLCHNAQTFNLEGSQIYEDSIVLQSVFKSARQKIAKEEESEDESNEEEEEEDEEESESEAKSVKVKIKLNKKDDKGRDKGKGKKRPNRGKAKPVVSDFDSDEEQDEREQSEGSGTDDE
Text: This characteristic has been described as cooperativity (α > 1) and likely results from favorable PPIs present in the ternary complex. […] To measure the rate of protein degradation, we treated A375 cells with a single concentration of each PROTAC and measured the decrease in target abundance over time as shown in Figs. 4b and5b.
(§4) MSD electrochemiluminescence signals were subtracted by the average background signal from wells with lysis buffer alone. Normalized MSD values (POC) for individual compound treated wells were acquired by dividing background-subtracted assay signal by signal from vehicle control wells (cells + 0.1% DMSO) and multiplying by 100. This POC data was graphed using a nonlinear regression curve fit xy analysis and a log(inhibitor) vs response —variable slope (four parameter) model for dose response curves (Graphpad Prism 9, San Diego, CA, USA). To calculate area under the curve, all points on the curve were connected and vertical lines were drawn from each point down to y = 0, generating a series of trapezoids. The area of each trapezoid was determined using the equation A = (1/2)(h)(b1 + b2), where h = 1 (distance between points), b1 = POC of the first point and b2 = POC of the second point. The sum of all trapezoids provides an approximate area under the curve (AUC). For half-life (t1/2) determination in time course studies, a one-phase decay model was used for curve fitting and the time at which the curve crossed 50 POC was determined through interpolation (Graphpad Prism 9, San Diego, CA, USA). Additionally initial rate of degradation was determined by multiplying 100 with rate constant (τ = 0.693/t1/2).

[5] = biological target: T4, SMARCA2; assay: SMARCA2 degradation, MSD assay, dose response; assay type: cell-based; set-up: key to AUC (area under the dose-response curve): sum of trapezoids of POC vs dose points, h = 1
Description: (§5) A375 cells were treated with SMARCA2 or BRD4 degraders for 2 h (4 h for BRD4) and generated lysates. SMARCA2 or BRD4 protein was measured with a variation of a sandwich ELISA that was assembled from commercially available antibodies as well as reagents and instrumentation procured from Meso Scale Discovery (MSD). Degradation parameter, DC50, is not suitable for PROTACs that induce partial/incomplete DR curves at a fixed time point; maximum drop in target protein level (Dmax) >>0. Conversely, the area under the curve (AUC) can be calculated as a degradation activity parameter for any DR curve, and it encompasses both the degradation potency (i.e., DC50) and efficacy (i.e., Dmax) of PROTACs.
(§6) A 1:3 compound dose-response titration was diluted in growth media (1:20), added to appropriate wells of a cell culture plate (1:10) and then assay plates were incubated at 37 °C, 5% CO2.
(§7) Plates were washed with 300 µL per well MSD wash buffer (MSD R61TX-1) between each step. Following the last incubation, plates were washed with MSD wash buffer then 150 µL of MSD read buffer (MSD R92TC-2) was added to each well. Plates were immediately read on a MSD plate reader (MSD Sector Imager 6000).
as §4, with “USA).” for “USA). Additionally initial rate of degradation was determined by multiplying 100 with rate constant (τ = 0.693/t1/2).”

[6] = biological target: T5, BRD4-NanoLuc (Homo sapiens, UniProt O60885); assay: NanoBRET target engagement assay, live and permeabilized HEK293 cells (BRD4); assay type: cell-based; conditions: for IC50: BRD4 NanoBRET TE
T5 construct: expressed in transfected cells; host or cells: HEK293
Description: We employed a NanoBRET-based target engagement (TE) assay as reported earlier^7 for evaluating PROTACs relative permeability. In summary, live and permeabilized HEK293 cells with SMARCA2 or BRD4-NanoLuc were used for measuring IC50 values of different PROTACs. The relative shift in the IC50 was evaluated as relative binding affinity (RBA) by taking the ratio of IC50 values of live and permeabilized cells. Availability index (AI), which is a surrogate for permeability can be calculated by taking a ratio of RBA of compounds to permeable benchmark molecules.
Relative Binding Affinity (RBA) = Live-cell TE IC50 / Permeabilized-cell TE IC50
Availability Index (AI) = RBAtest cmpd / RBApermeable benchmark
Availability Index (AI) greater than one is indicative of reduced permeability compared to the benchmark.

[7] = biological target: T6, BRD4 (Homo sapiens, UniProt O60885); assay: BRD4 degradation time course in A375 cells (MSD); assay type: cell-based; conditions: single concentration at or near maximal activity
T6 construct: endogenous in cells; host or cells: A375
Text: To measure the rate of protein degradation, we treated A375 cells with a single concentration of each PROTAC and measured the decrease in target abundance over time as shown in Figs. 4b and5b.
as §4, with “USA).” for “USA). Additionally initial rate of degradation was determined by multiplying 100 with rate constant (τ = 0.693/t1/2).”

[8] = biological target: T7, VBC / BRD4^BD1 ternary complex (Homo sapiens, UniProt O60885+P40337); assay: SPR ternary complex binding, VBC surface with preformed PROTAC/BRD4 BD1 complex
T7 construct: VHL (54-213), ElonginB (17-112) ElonginC (1-104); BRD4 (44-168); His6 (N, cleaved yes); made in house
Description: as §1
as §2, with “This complex was then serially diluted in the running buffer containing 2.5 μM SMARCA2 or BRD4 and 2% DMSO (5-point five-fold serial dilution).” left out
as §3

[9] = biological target: T8, VBC / BRD4^BD2 ternary complex (Homo sapiens, UniProt O60885+P40337); assay: SPR ternary complex binding, VBC surface with preformed PROTAC/BRD4 BD2 complex
T8 construct: VHL (54-213), ElonginB (17-112) ElonginC (1-104); ternary complex formation with both bromodomains, BRD4^BD1 and BRD4^BD2, independently; His6 (N); made in house
Description: as §1
as §2, with “This complex was then serially diluted in the running buffer containing 2.5 μM SMARCA2 or BRD4 and 2% DMSO (5-point five-fold serial dilution).” left out
as §3

[10] = biological target: T9, BRD4^BD2 (Homo sapiens, UniProt O60885); assay: SPR binary binding of PROTAC to BRD4^BD2-functionalized surface; conditions: 1:1 Langmuir binding model, SD N=2
T9 construct: ternary complex formation with both bromodomains, BRD4^BD1 and BRD4^BD2, independently; made in house

[11] = biological target: T6, BRD4; assay: BRD4 degradation, MSD assay, dose response; assay type: cell-based; set-up: AUC (area under the dose-response curve): unit not given beside the values; conditions: A375 cells
Description: as §5, §6, §7
as §4, with “USA).” for “USA). Additionally initial rate of degradation was determined by multiplying 100 with rate constant (τ = 0.693/t1/2).”

[12] = SPR, VHL, PROTAC, error SEM, N = 3, read-out: KLPT (ternary complex binding affinity)

α (cooperativity, KLP/KLPT) [1]: 0.32
Kd [1, 12]: 77 ± 8 nM
Kd [2]: 294 ± 33 nM
Kd [3]: 25 ± 4 nM
Initial Degradation Rate [4]: 0.98 %/min
SMARCA2 degradation ([5]; 2 h MSD assay): ~ 30%
Dmax ([5]; A-375, SMARCA2 degraded, MSD assay, A375 cells, 2 h timepoint): 74%
AUC (area under the dose-response curve) ([5]; SMARCA2 MSD assay, A375 cells, 2 h): 85
DC50 ([5]; SMARCA2 degradation, MSD assay, A375 cells, 2 h timepoint): 372 nM
SMILES: Cc1ncsc1-c1ccc([C@H](C)NC(=O)[C@@H]2C[C@@H](O)CN2C(=O)[C@@H](NC(=O)c2cccc(N3CCN(c4nc(-c5ccccc5O)nnc4N)CC3)n2)C(C)(C)C)cc1 [Compound 9, 6-(4-(6-Amino-3-(2-hydroxyphenyl)-1,2,4-triazin-5-yl)piperazin-1-yl)-N-((S)-1-((2S,4R)-4-hydroxy-2-(((S)-1-(4-(4-methylthiazol-5-yl)phenyl)ethyl)carbamoyl)pyrrolidin-1-yl)-3,3-dimethyl-1-oxobutan-2-yl)picolinamide]

Availability Index ([6]; RBA test cmpd / RBA of JQ1 benchmark, surrogate for permeability): 264.47
IC50 ([6]; live HEK293 cells, read-out: Live-Cell TE): 21600 nM
IC50 ([6]; permeabilized HEK293 cells, read-out: Permeabilized-Cell TE): 80 nM
Initial Degradation Rate [7]: 1.38 %/min
α (cooperativity, KLP/KLPT) [8]: 0.7
Kd [8, 12]: 31 ± 4 nM
α (cooperativity, KLP/KLPT) [9]: 3.7
Kd [9, 12]: 6 ± 1 nM
Kd [10]: 20.5 ± 1.2 nM
Kd [3]: 22 ± 2 nM
Dmax ([11]; A-375, BRD4 degraded, MSD assay, 4 h timepoint): 91%
AUC (area under the dose-response curve) ([11]; BRD4 MSD assay, 4 h): 192
DC50 ([11]; BRD4 degradation, MSD assay, 4 h timepoint): 518 nM
SMILES: Cc1ncsc1-c1ccc(CNC(=O)[C@@H]2C[C@@H](O)CN2C(=O)[C@@H](NC(=O)COCc2cn(CCNC(=O)C[C@@H]3N=C(c4ccc(Cl)cc4)c4c(sc(C)c4C)-n4c(C)nnc43)nn2)C(C)(C)C)cc1 [Compound 12, (2S,4R)-1-((S)-2-(2-((1-(2-(2-((S)-4-(4-chlorophenyl)-2,3,9-trimethyl-6H-thieno[3,2-f][1,2,4]triazolo[4,3-a][1,4]diazepin-6-yl)acetamido)ethyl)-1H-1,2,3-triazol-4-yl)methoxy)acetamido)-3,3-dimethylbutanoyl)-4-hydroxy-N-(4-(4-methylthiazol-5-yl)benzyl)pyrrolidine-2-carboxamide]
